According to the supplement of paper PMC10307832:

How the values were obtained:
Assay in all cases: relative viability (nuclei count vs DMSO), 5 days (fraction); higher = more cells survive
[1] = compound: CS(=O)(=O)N1CCN(Cc2cc3nc(-c4cccc5[nH]ncc45)nc(N4CCOCC4)c3s2)CC1 [Pictilisib] + CC(=O)Nc1cccc(-n2c(=O)n(C3CC3)c(=O)c3c(Nc4ccc(I)cc4F)n(C)c(=O)c(C)c32)c1 [Trametinib] (partner 0.02 µM)
Outline: (§1)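 After 5 days of treatment, lung cancer cells in 1536-well plates were fixed and stained in a single step (final 0.05% Triton X-100, 1% formaldehyde, 1 ug/ml Hoechst) and their nuclei counted on 4× images. Treatment had been applied by pin tool the day after seeding as one drug alone or as a fixed anchor-drug dose with five library-drug doses (not always all listed) in √10 steps. Relative viability is the nuclei count of treated wells divided by that of vehicle wells, and values are medians of duplicate plates.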

[2] = compound: CS(=O)(=O)N1CCN(Cc2cc3nc(-c4cccc5[nH]ncc45)nc(N4CCOCC4)c3s2)CC1 [Pictilisib] + O=C(CCCCCCC(=O)Nc1ccccc1)NO [Vorinostat] (partner 1 µM)
Outline: as §1

[3] = compound: CS(=O)(=O)N1CCN(Cc2cc3nc(-c4cccc5[nH]ncc45)nc(N4CCOCC4)c3s2)CC1 [Pictilisib] + O=C(c1cc(Cc2n[nH]c(=O)c3ccccc23)ccc1F)N1CCN(C(=O)C2CC2)CC1 [Olaparib] (partner 8 µM)
Outline: as §1

[4] = compound: NC1(c2ccc(-c3nc4ccn5c(=O)[nH]nc5c4cc3-c3ccccc3)cc2)CCC1 [MK-2206] + CC(C)C[C@H](NC(=O)[C@H](Cc1ccccc1)NC(=O)c1cnccn1)B(O)O [Bortezomib] (partner 0.002 µM)
Outline: as §1

[5] = compound: NC1(c2ccc(-c3nc4ccn5c(=O)[nH]nc5c4cc3-c3ccccc3)cc2)CCC1 [MK-2206] + Nc1ncn([C@H]2C[C@H](O)[C@@H](CO)O2)c(=O)n1 [Decitabine] (partner 2 µM)
Outline: as §1

Cell Line | relative viability ([1]; first compound 0.02 µM) | relative viability ([1]; first compound 0.06325 µM) | relative viability ([1]; first compound 0.6325 µM) | relative viability ([1]; first compound 2 µM) | relative viability ([2]; first compound 0.02 µM) | relative viability ([2]; first compound 0.06325 µM) | relative viability ([2]; first compound 0.6325 µM) | relative viability ([2]; first compound 2 µM) | relative viability ([3]; first compound 0.02 µM) | relative viability ([3]; first compound 0.06325 µM) | relative viability ([3]; first compound 0.6325 µM) | relative viability ([3]; first compound 2 µM) | relative viability ([4]; first compound 0.01 µM) | relative viability ([4]; first compound 0.03162 µM) | relative viability ([4]; first compound 0.3162 µM) | relative viability ([4]; first compound 1 µM) | relative viability ([5]; first compound 0.01 µM) | relative viability ([5]; first compound 0.03162 µM) | relative viability ([5]; first compound 0.3162 µM) | relative viability ([5]; first compound 1 µM)
LCLC-103H | 0.649 | 0.711 | 0.501 | 0.558 | 0.84 | 0.737 | 0.634 | 0.469 | 0.722 | 0.851 | 0.701 | 0.475 | 1.04 | 1.03 | 1.02 | 1.07 | 0.721 | 0.755 | 0.735 | 0.691
LOU-NH91 | 0.867 | 0.715 | 0.68 | 0.567 | 1.09 | 0.901 | 0.797 | 0.651 | 0.946 | 0.908 | 0.875 | 0.695 | 0.466 | 0.521 | 0.47 | 0.443 | 0.783 | 0.839 | 0.793 | 0.768
LU99A | 0.579 | 0.478 | 0.407 | 0.239 | 0.548 | 0.593 | 0.327 | 0.225 | 0.273 | 0.301 | 0.254 | 0.216 | 1.27 | 1.12 | 1.14 | 1.06 | 0.854 | 0.937 | 0.921 | 0.903
LXF-289 | 0.693 | 0.691 | 0.705 | 0.385 | 0.885 | 0.696 | 0.763 | 0.557 | 1.1 | 1.14 | 1.03 | 0.631 | 0.949 | 1.04 | 1.06 | 1.06 | 0.398 | 0.418 | 0.412 | 0.396
NCI-H23 | 0.367 | 0.319 | 0.241 | 0.163 | 0.636 | 0.722 | 0.349 | 0.263 | 0.298 | 0.389 | 0.355 | 0.198 | 0.906 | 1.04 | 0.91 | 0.975 | 0.325 | 0.318 | 0.295 | 0.332
NCI-H322M | 0.516 | 0.529 | 0.407 | 0.394 | 0.955 | 0.888 | 0.741 | 0.543 | 0.76 | 0.838 | 0.756 | 0.525 | 1.12 | 1.35 | 1.31 | 1.41 | 0.677 | 0.735 | 0.787 | 0.624
NCI-H441 | 0.462 | 0.521 | 0.258 | 0.195 | 0.972 | 0.682 | 0.607 | 0.457 | 0.653 | 0.606 | 0.493 | 0.346 | 0.841 | 0.575 | 0.223 | 0.233 | 0.248 | 0.251 | 0.206 | 0.234
